The record followed here is patent US9650361B2, “N-(pyridin-2-yl)pyrimidin-4-amine derivatives containing a sulfoximine group” (BAYER PHARAM AKTIENGESELLSCHAFT, priority 2012, dated 2017).

Each structure is given as a SMILES string. Where two headings read alike, the source gives them in different places.

The test system of one assay is MOLM-13 cells. Put plainly: Proliferation assay, MOLM-13 (Method 3). Conditions: 72-hour exposure, Cell Titre-Glo, read-out: Inhibition of MOLM 13 cell proliferation IC50. Format: cell-based, human. Here is the method:
Non-adherent MOLM-13 human acute myeloid leukemia cells (DSMZ ACC 554) were seeded at a density of 5,000 cells/well in a 96-well multititer plate in 100 μL of growth medium supplemented 10% fetal calf serum. After 24 hours, cell viability of one plate (zero-point plate) was determined with the Cell Titre-Glo Luminescent Cell Viability Assay (Promega), while 50 μl of test compound containing medium was added to the wells of the other plates (final concentrations in the range of 0.001-10 μM and DMSO controls; the final concentration of the solvent dimethyl sulfoxide was 0.5%). Cell viability was assessed after 72-hour exposure with the Cell Titre-Glo Luminescent Cell Viability Assay (Promega). IC50 values (inhibitory concentration at 50% of maximal effect) were determined by means of a 4 parameter fit on measurement data which were normalized to vehicle (DMSO) treated cells (=100%) and measurement readings taken immediately before compound exposure (=0%).

The target of the next assay is T1, CDK2/CycE (Homo sapiens, UniProt P24941).
T1 construct: GST; purchased ProQinase GmbH (Freiburg, Germany); host or cells: insect cells (Sf9)
Description: CDK2/CycE kinase assay (Method 2a). Conditions: 10 μM ATP. Type of assay: biochemical. From the text: 2a. CDK2/CycE Kinase Assay:
CDK2/CycE-inhibitory activity of compounds of the present invention was quantified employing the CDK2/CycE TR-FRET assay as described in the following paragraphs:
Recombinant fusion proteins of GST and human CDK2 and of GST and human CycE, expressed in insect cells (Sf9) and purified by Glutathion-Sepharose affinity chromatography, were purchased from ProQinase GmbH (Freiburg, Germany) As substrate for the kinase reaction biotinylated peptide biotin-Ttds-YISPLKSPYKISEG (C-terminus in amid form) was used which can be purchased e.g. form the company JERINI Peptide Technologies (Berlin, Germany).
For the assay 50 nl of a 100 fold concentrated solution of the test compound in DMSO was pipetted into a black low volume 384 well microtiter plate (Greiner Bio-One, Frickenhausen, Germany), 2 μl of a solution of CDK2/CycE in aqueous assay buffer [50 mM Tris/HCl pH 8.0, 10 mM MgCl2, 1.0 mM dithiothreitol, 0.1 mM sodium ortho-vanadate, 0.01% (v/v) Nonidet-P40 (Sigma)] were added and the mixture was incubated for 15 min at 22° C. to allow pre-binding of the test compounds to the enzyme before the start of the kinase reaction. Then the kinase reaction was started by the addition of 3 μl of a solution of adenosine-tri-phosphate (ATP, 16.7 μM=>final conc. in the 5 μl assay volume is 10 μM) and substrate (1.25 μM=>final conc. in the 5 μl assay volume is 0.75 μM) in assay buffer and the resulting mixture was incubated for a reaction time of 25 min at 22° C. The concentration of CDK2/CycE was adjusted depending of the activity of the enzyme lot and was chosen appropriate to have the assay in the linear range, typical concentrations were in the range of 130 ng/ml. The reaction was stopped by the addition of 5 μl of a solution of TR-FRET detection reagents (0.2 μM streptavidine-XL665 [Cisbio Bioassays, Codolet, France] and 1 nM anti-RB(pSer807/pSer811)-antibody from BD Pharmingen [#558389] and 1.2 nM LANCE EU-W1024 labeled anti-mouse IgG antibody [Perkin-Elmer, product no. AD0077]) in an aqueous EDTA-solution (100 mM EDTA, 0.2% (w/v) bovine serum albumin in 100 mM HEPES/NaOH pH 7.0).
The resulting mixture was incubated 1 h at 22° C. to allow the formation of complex between the phosphorylated biotinylated peptide and the detection reagents. Subsequently the amount of phosphorylated substrate was evaluated by measurement of the resonance energy transfer from the Eu-chelate to the streptavidine-XL. Therefore, the fluorescence emissions at 620 nm and 665 nm after excitation at 350 nm was measured in a TR-FRET reader, e.g. a Rubystar (BMG Labtechnologies, Offenburg, Germany) or a Viewlux (Perkin-Elmer). The ratio of the emissions at 665 nm and at […] was taken as the measure for the amount of phosphorylated substrate. The data were normalised (enzyme reaction without inhibitor=0% inhibition, all other assay components but no enzyme=100% inhibition).

Another assay has as its system DU145 cells. Put plainly: Proliferation assay, DU145 (Method 3). Format: cell-based, human. Conditions: 4 days, crystal violet, read-out: Inhibition of DU145 cell proliferation IC50. On the procedure:
Cultivated tumour cells (HeLa, human cervical tumour cells, ATCC CCL-2; NCI-H460, human non-small cell lung carcinoma cells, ATCC HTB-177; A2780, human ovarian carcinoma cells, ECACC #93112519; DU 145, hormone-independent human prostate carcinoma cells, ATCC HTB-81; HeLa-MaTu-ADR, multidrug-resistant human cervical carcinoma cells, EPO-GmbH Berlin; Caco-2, human colorectal carcinoma cells, ATCC HTB-37; B16F10, mouse melanoma cells, ATCC CRL-6475) were plated at a density of 5,000 cells/well (DU145, HeLa-MaTu-ADR), 3,000 cells/well (NCI-H460, HeLa), 2,500 cells/well (A2780), 1,500 cells/well (Caco-2), or 1,000 cells/well (B16F10) in a 96-well multititer plate in 200 μL of their respective growth medium supplemented 10% fetal calf serum. After 24 hours, the cells of one plate (zero-point plate) were stained with crystal violet (see below), while the medium of the other plates was replaced by fresh culture medium (200 μl), to which the test substances were added in various concentrations (0 μM, as well as in the range of 0.001-10 μM; the final concentration of the solvent dimethyl sulfoxide was 0.5%). The cells were incubated for 4 days in the presence of test substances. Cell proliferation was determined by staining the cells with crystal violet: the cells were fixed by adding 20 μl/measuring point of an 11% glutaric aldehyde solution for 15 minutes at room temperature. After three washing cycles of the fixed cells with water, the plates were dried at room temperature. The cells were stained by adding 100 μl/measuring point of a 0.1% crystal violet solution (pH 3.0). After three washing cycles of the stained cells with water, the plates were dried at room temperature. The dye was dissolved by adding 100 μl/measuring point of a 10% acetic acid solution. The extinction was determined by photometry at a wavelength of 595 nm. The change of cell number, in percent, was calculated by normalization of the measured values to the extinction values of the zero-point plate (=0%) and the extinction of the untreated (0 μm) cells (=100%). The IC50 values (inhibitory concentration at 50% of maximal effect) were determined by means of a 4 parameter fit.

With `COc1cc(F)ccc1-c1cc(Nc2cc(CS(C)(=N)=O)ccn2)ncn1` (single isomer, unassigned) [Example 3, 6-(4-Fluoro-2-methoxyphenyl)-N-{4-[(S-methylsulfonimidoyl)methyl]pyridin-2-yl}pyrimidin-4-amine], the IC50 amounted to 80 nM in the assay on MOLM-13 cells and 660 nM at CDK2/CycE.

On to `COc1cc(F)ccc1-c1cc(Nc2cc(CS(C)(=N)=O)cc(Cl)n2)ncn1` (single isomer, unassigned) [Example 6, N-{6-Chloro-4-[(S-methylsulfonimidoyl)methyl]pyridin-2-yl}-6-(4-fluoro-2-methoxyphenyl)pyrimidin-4-amine], for which the values for the IC50 in the assay with DU145 cells, in the assay on MOLM-13 cells and on CDK2/CycE were 110 nM, 44 nM and 94 nM, respectively.

On to `COc1cc(F)ccc1-c1cc(Nc2cc(CS(C)(=N)=O)cc(C(F)(F)F)n2)ncn1` (racemic) [Example 10, (rac)-6-(4-Fluoro-2-methoxyphenyl)-N-{4-[(S-methylsulfonimidoyl)methyl]-6-(trifluoromethyl)pyridin-2-yl}pyrimidin-4-amine], for which the IC50 in the assay with DU145 cells (Homo sapiens, DU-145, 96 h) is 88 nM; with MOLM-13 cells (Homo sapiens, MOLM-13, 72 h) it was 32 nM; against CDK2/CycE it was 63 nM.

Turning to `COc1cc(F)ccc1-c1cc(Nc2cc(CS(C)(=N)=O)cc(C)n2)ncn1` (racemic) [Example 7, (rac)-6-(4-Fluoro-2-methoxyphenyl)-N-{6-methyl-4-[(S-methylsulfonimidoyl)methyl]pyridin-2-yl}pyrimidin-4-amine], the IC50 in the assay on DU145 cells (Homo sapiens, DU-145, 96 h) was 121 nM; in the assay on MOLM-13 cells (Homo sapiens, MOLM-13, 72 h), 53 nM; against CDK2/CycE, 280 nM.

For `COc1cc(F)ccc1-c1cc(Nc2cc(CS(C)(=N)=O)cc(C)n2)ncn1` (single isomer, unassigned) [Example 9, 6-(4-Fluoro-2-methoxyphenyl)-N-{6-methyl-4-[(S-methylsulfonimidoyl)methyl]pyridin-2-yl}pyrimidin-4-amine], the IC50 in the assay on DU145 cells was 126 nM; in the assay on MOLM-13 cells, 43 nM; against CDK2/CycE, 330 nM.

Consider `COc1cc(F)ccc1-c1cc(Nc2cc(CS(C)(=N)=O)cc(Cl)n2)ncn1` (racemic) [Example 4, (rac)-N-{6-Chloro-4-[(S-methylsulfonimidoyl)methyl]pyridin-2-yl}-6-(4-fluoro-2-methoxyphenyl)pyrimidin-4-amine], for which the IC50 in the assay with DU145 cells (Homo sapiens, DU-145, 96 h) was determined as 77 nM; in the assay with MOLM-13 cells (Homo sapiens, MOLM-13, 72 h), 47 nM; at CDK2/CycE, 160 nM.

In the case of `COc1cc(F)ccc1-c1cc(Nc2cc(CS(C)(=N)=O)ccn2)ncn1` (single isomer, unassigned) [Example 2, 6-(4-Fluoro-2-methoxyphenyl)-N-{4-[(S-methylsulfonimidoyl)methyl]pyridin-2-yl}pyrimidin-4-amine], the IC50 in the assay on MOLM-13 cells was found to be 189 nM; against CDK2/CycE, 1300 nM.

Turning to `COc1cc(F)ccc1-c1cc(Nc2cc(CS(C)(=N)=O)cc(Cl)n2)ncn1` (single isomer, unassigned) [Example 5, N-{6-Chloro-4-[(S-methylsulfonimidoyl)methyl]pyridin-2-yl}-6-(4-fluoro-2-methoxyphenyl)pyrimidin-4-amine], the IC50 with DU145 cells (Homo sapiens, DU-145, 96 h) was determined as 105 nM; in the assay with MOLM-13 cells (Homo sapiens, MOLM-13, 72 h) it was 33 nM; on CDK2/CycE, 56 nM.

On to `COc1cc(F)ccc1-c1cc(Nc2cc(CS(C)(=N)=O)ccn2)ncn1` (racemic) [Example 1, (rac)-6-(4-Fluoro-2-methoxyphenyl)-N-{4-[(S-methylsulfonimidoyl)methyl]pyridin-2-yl}pyrimidin-4-amine], for which the IC50 in the assay on DU145 cells (Homo sapiens, DU-145, 96 h) came out at 309 nM; against CDK2/CycE, 600 nM.

For the molecule `COc1cc(F)ccc1-c1cc(Nc2cc(CS(C)(=N)=O)cc(C)n2)ncn1` (single isomer, unassigned) [Example 8, 6-(4-Fluoro-2-methoxyphenyl)-N-{6-methyl-4-[(S-methylsulfonimidoyl)methyl]pyridin-2-yl}pyrimidin-4-amine], the IC50 was 179 nM in the assay with DU145 cells (Homo sapiens, DU-145, 96 h); 64 nM in the assay on MOLM-13 cells (Homo sapiens, MOLM-13, 72 h); 400 nM against CDK2/CycE.
